IC50 data for 9 molecules are collected here from patent US20240148821A1, “PHARMACEUTICAL USE OF CYCLIC PEPTIDE COMPOUND” (CHUGAI SEIYAKU KABUSHIKI KAISHA, priority 2021, published 2024).

Broadly, the IC50 is the concentration that inhibits the measured activity by half.

Numbered stars: 1 amine (or outer) side, 2 acyl side, 3 side chain; on linkers, the order of the positions; unused ones are H or OH. Bridge positions count the residues as written; N and C are the ends. Square brackets hold non-standard residues; d marks the D form. Peptide text beside a SMILES is read from it. * marks the point of attachment. hPhe(3-Cl-4-CF3) = N[C@@H](CCc1ccc(C(F)(F)F)c(Cl)c1)C(=O)O; NEtPhe(4-CF3) = CCN[C@@H](Cc1ccc(C(F)(F)F)cc1)C(=O)O; hPhe(4-CF3) = N[C@@H](CCc1ccc(C(F)(F)F)cc1)C(=O)O; X37 = CC(C)(C)NC(=O)COC[C@H](CC(=O)[*:1])N[*:2]; 3Oxa8azabicyclo(3.2.1)octane = C1CC2COCC1N2*; NMePhe(4-Cl) = CN[C@@H](Cc1ccc(Cl)cc1)C(=O)O; X61 = O=C(CN(CCCN1CCC(F)(F)CC1)[*:1])[*:2]; NMedβ3hAla = C[C@H](CC(=O)[*:2])N(C)[*:1]; NMeGly(cPent) = CN[C@H](C(=O)O)C1CCCC1; NMeCha = CN[C@@H](CC1CCCCC1)C(=O)O; Hyp = O=C(O)[C@@H]1C[C@@H](O)CN1; NMeChg = CN[C@H](C(=O)O)C1CCCCC1; X68 = COCCOCCN(CC(=O)[*:2])[*:1]; NMeD = CN[C@@H](CC(=O)O)C(=O)O; NMeL = CN[C@@H](CC(C)C)C(=O)O; NMeV = CN[C@H](C(=O)O)C(C)C; d(β3hA) = C[C@@H](N)CC(=O)O; NMeAbu = CC[C@H](NC)C(=O)O; NMeS = CN[C@@H](CO)C(=O)O; NMeA = CN[C@@H](C)C(=O)O; NMeAib = CNC(C)(C)C(=O)O; Piperidide = C1CCN(*)CC1; Ac5c = NC1(C(=O)O)CCCC1; Aze = O=C(O)[C@@H]1CCN1; CH2CMe2OH = CC(C)(O)C*; NBuGly = CCCCNCC(=O)O; Aib = CC(C)(N)C(=O)O; Isopentyl = CC(C)CC*; Sar = CNCC(=O)O; Propyl = CCC*

The experiment has as its target protein-protein interaction between Kras and SOS1 (biotin-tagged human Kras loaded with GDP, His-tagged human SOS1) (Homo sapiens (Human), UniProt P01116, G12D). The experiment is described as follows: Protein-protein interaction inhibition between Kras and SOS1 (KrasG12D-SOS PPI) using AlphaScreen.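 Also: kras produced in E. coli, Ni-coupled donor beads and streptavidin acceptor beads, excitation 680 nm with emission detected at 520–620 nm via singlet oxygen transfer.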 The settings on record: AlphaScreen; biotin-tagged human Kras loaded with GDP, His-tagged human SOS1; read-out: KRAS G12D-SOS PPI IC50. The class given is biochemical. (In Alpha technology, singlet oxygen from a donor bead excites a nearby acceptor bead.)
As to `CC[C@H](C)[C@@H]1NC(=O)[C@H](CC(C)C)N(C)C(=O)C[C@@H](C(=O)N2CCCCC2)N(C)C(=O)[C@H](C2CCCCC2)N(C)C(=O)C2(CCCC2)NC(=O)CN(CCOCCOC)C(=O)[C@H](CCc2ccc(C(F)(F)F)c(Cl)c2)NC(=O)CN(C)C(=O)[C@H](CC2CCCCC2)N(C)C(=O)CN(C)C(=O)CN(C)C1=O` [Compound 2025] ([NMeL]I[Sar][Sar][NMeCha][Sar][hPhe(3-Cl-4-CF3)][X68][Ac5c][NMeChg][NMeD]-Piperidide; lactam N-11 (inferred); C-terminus assumed), the IC50 stood at 1.4 nM.
Next, `CC[C@H](C)[C@@H]1NC(=O)[C@H](CC)N(C)C(=O)C[C@@H](C(=O)N2CCCCC2)N(C)C(=O)[C@H](C(C)C)N(C)C(=O)C2(CCCC2)NC(=O)[C@@H]2CCCN2C(=O)[C@H](CCc2ccc(C(F)(F)F)c(Cl)c2)NC(=O)CN(C)C(=O)[C@H](CC2CCCCC2)N(C)C(=O)[C@@H]2CCN2C(=O)[C@H](C)N(C)C1=O` [Compound 1638] ([NMeAbu]I[NMeA][Aze][NMeCha][Sar][hPhe(3-Cl-4-CF3)]P[Ac5c][NMeV][NMeD]-Piperidide; lactam N-11): 7.3 nM; `CCCOC[C@H]1C(=O)N(C)CC(=O)N[C@@H](CCc2ccc(C(F)(F)F)c(Cl)c2)C(=O)N2CCC[C@H]2C(=O)NC2(CCCC2)C(=O)N(C)[C@@H](C2CCCC2)C(=O)N(C)[C@H](C(=O)N2C3CCC2COC3)CC(=O)N(C)[C@@H](CC(C)C)C(=O)N[C@@H]([C@@H](C)CC)C(=O)N[C@@H](C)C(=O)N2CC[C@H]2C(=O)N1C` [Compound 1299] ([NMeL]IA[Aze][NMeS](Propyl)[Sar][hPhe(3-Cl-4-CF3)]P[Ac5c][NMeGly(cPent)][NMeD]-{3Oxa8azabicyclo(3.2.1)octane}; lactam N-11): 3.6 nM.
Next, `CC[C@H](C)[C@@H]1NC(=O)[C@H](CC(C)C)N(C)C(=O)C[C@@H](C)N(C)C(=O)[C@H](C2CCCC2)N(C)C(=O)C2(CCCC2)NC(=O)[C@@H]2CCCN2C(=O)[C@H](CCc2ccc(C(F)(F)F)c(Cl)c2)NC(=O)CN(C)C(=O)[C@H](CC2CCCCC2)N(C)C(=O)[C@@H]2CCN2C(=O)[C@H](C)N(C)C1=O` [Compound 1717] (cyclo([Ac5c][NMeGly(cPent)][NMedβ3hAla][NMeL]I[NMeA][Aze][NMeCha][Sar][hPhe(3-Cl-4-CF3)]P)): 3.3 nM; `CC[C@H](C)[C@@H]1NC(=O)[C@H](CC(C)C)N(C)C(=O)C[C@@H](C(=O)N2CCCCC2)N(C)C(=O)[C@H](C2CCCCC2)N(C)C(=O)C2(CCCC2)NC(=O)CN(CCCN2CCC(F)(F)CC2)C(=O)[C@H](CCc2ccc(C(F)(F)F)c(Cl)c2)NC(=O)CN(C)C(=O)[C@H](CC2CCCCC2)N(C)C(=O)CN(C)C(=O)CN(C)C1=O` [Compound 2021] ([NMeL]I[Sar][Sar][NMeCha][Sar][hPhe(3-Cl-4-CF3)][X61][Ac5c][NMeChg][NMeD]-Piperidide; lactam N-11): 2.8 nM.
As to `CCO[C@@H]1C[C@H]2C(=O)NC3(CCCC3)C(=O)N(C)[C@@H](C3CCCC3)C(=O)N(C)[C@H](C)CC(=O)N(C)[C@@H](CC(C)C)C(=O)N[C@@H]([C@@H](C)CC)C(=O)N[C@@H](C)C(=O)N3CC[C@H]3C(=O)N(CC)[C@@H](Cc3ccc(C(F)(F)F)cc3)C(=O)N(C)CC(=O)N[C@@H](CCc3ccc(C(F)(F)F)c(Cl)c3)C(=O)N2C1` [Compound 401] (cyclo(A[Aze][NEtPhe(4-CF3)][Sar][hPhe(3-Cl-4-CF3)][Hyp](Et)[Ac5c][NMeGly(cPent)][NMedβ3hAla][NMeL]I)), the concentration for half-maximal inhibition (IC50) came to 3.6 nM.
Next, `CCCCN1CC(=O)N(C)CC(=O)N(C)[C@@H](COCCC(C)C)C(=O)N(C)CC(=O)N[C@@H](CCc2ccc(C(F)(F)F)c(Cl)c2)C(=O)N[C@@H](COCC(C)(C)O)C(=O)NC(C)(C)C(=O)N(C)[C@@H](CC(C)C)C(=O)N[C@H](C)CC(=O)N(C)[C@@H](CC(C)C)C(=O)N[C@@H]([C@@H](C)CC)C1=O` [Compound 1473] (cyclo([Aib][NMeL][d(β3hA)][NMeL]I[NBuGly][Sar][NMeS](Isopentyl)[Sar][hPhe(3-Cl-4-CF3)]S(CH2CMe2OH))): 390 nM; `CC[C@H](C)[C@@H]1NC(=O)[C@H](C(C)C)N(C)C(=O)C[C@@H](COCC(=O)NC(C)(C)C)NC(=O)[C@H](CC(C)C)N(C)C(=O)C2(CCCC2)NC(=O)[C@H](CC(C)C)N(C)C(=O)[C@H](CCc2ccc(C(F)(F)F)cc2)NC(=O)CN(C)C(=O)[C@H](Cc2ccc(Cl)cc2)N(C)C(=O)CN(C)C(=O)CN(C)C1=O` [Compound 759] ([NMeV]I[Sar][Sar][NMePhe(4-Cl)][Sar][hPhe(4-CF3)][NMeL][Ac5c][NMeL]; linker N-C via X37): 160 nM.
In the case of `CC[C@H](C)[C@@H]1NC(=O)[C@H](CC(C)C)N(C)C(=O)C[C@@H](C)N(C)C(=O)[C@H](CC(C)C)NC(=O)C(C)(C)N(C)C(=O)[C@H](CC(C)C)NC(=O)[C@H](CCc2ccc(C(F)(F)F)cc2)NC(=O)CN(C)C(=O)[C@H](Cc2ccc(Cl)cc2)N(C)C(=O)CN(C)C(=O)CN(C)C1=O` [Compound 315] (cyclo(I[Sar][Sar][NMePhe(4-Cl)][Sar][hPhe(4-CF3)]L[NMeAib]L[NMedβ3hAla][NMeL])), the IC50 turned out to be 120 nM.
